The test system of data set [1] is BT-474 human breast xenograft. Nature of the data set: BT-474 xenograft tumour growth in nude mice. The format is in vivo. Particulars: 24 days, monotherapy. The protocol:
(§1) Figure 8 Dual treatment with Akt and SGK inhibitors reduces tumour growth in BT‐474 xenograft model • BT‐474 cells were treated for the indicated times with 0.3 μM MK‐2206. The cell lysates were analysed by immunoblot using the indicated antibodies. • BT‐474c cells were treated with inhibitors as indicated either as monotherapy or in combination and cell confluency measured on the Incucyte ZOOM every 4 h for up to 4 weeks. • BT‐474 cells were injected subcutaneously into athymic Foxn1 ^nu nude mice. […] The tumour volume was measured twice a week. Tumour growth is represented as the fold change mean ± SEM. • All mice were weighed at the end of the treatments. […] Apoptotic cells were counted in 25 fields per condition (left panel) and quantified as clCasp3‐positive cells/field (right panel). […] Six different tumours were analysed from each treatment group and each line represents one tumour sample. […]
(§2) Experiments involving mice were in accordance with Institutional Guidelines of Memorial Sloan Kettering Cancer Center (Protocol number 12‐10‐019). […] When tumours reached a volume of ~150 mm^3, mice were randomised, treated, and tumours were measured twice a week. Tumour volume was determined using the following formula: (length × width^2) ÷ 2. […]

A further data set concerns ZR-75-1 cells. Description: Immunoblot of Akt/mTORC1 pathway markers (Akt, PRAS40, TSC2, S6K1, Rictor, S6, 4EBP1) in ZR-75-1 cells. The format is cell-based, human. Here is the method:
Kinase reactions are presented as means ± SD for triplicate reaction. Immunoprecipitates (IP) were also analysed by immunoblot with the indicated antibodies. • SGK3 was knocked down in ZR‐75‐1 cells by using shRNA probe B and compared to a control shRNA probe, named sh scramble. After infection, the cells were kept for 2 days in puromycin selection media and then seeded for the experiment. The cells were treated with 1 μM MK‐2206 for 1 h or 5 days. The cell lysates were subjected to immunoblot analysis with the indicated antibodies.
The cell lysates were analysed by immunoblot using the antibody against phosphorylated Akt phosphorylation consensus motif (RxRxxpS/pT).
HEK293 cells were purchased from the American Tissue Culture Collection (ATCC). Cells were cultured in RPMI or DMEM media supplemented with 10% (v/v) foetal bovine serum, 2 mM L‐glutamine, 100 U/ml penicillin and 0.1 mg/ml streptomycin. Inhibitor treatments were carried out as described in figure legends. During 5 days inhibitor treatments, the media was changed after 72‐h intervals. The cells were lysed in buffer containing 50 mM Tris–HCl (pH 7.5), 150 mM NaCl, 1 mM EDTA, 1 mM EGTA, 1 mM sodium orthovanadate, 10 mM sodium glycerophosphate, 10 mM sodium pyrophosphate, 0.27 M sucrose, 0.1% (v/v) 2‐mercaptoethanol, 1 mM benzamidine and 0.1 mM PMSF. Lysates were clarified by centrifugation at 16,000 g for 10 min at 4°C. Protein concentration was calculated using Bradford assay (Thermo Scientific). Immunoblotting and immunoprecipitation were performed using standard procedures. The signal was developed using ECL Western Blotting Detection Kit (Amersham) on Amersham Hyperfilm ECL film (Amersham).
For orientation: Immunoblotting shows a protein as a band on a membrane.

Data set [2] concerns BT-474 xenograft tumours. Description: Immunohistochemical and immunoblot analysis of signalling markers in xenograft tumours. The format is in vivo, mice. The settings on record: end of treatment, IHC and immunoblot. The protocol: as §1, §2
Data set [3] can be described thus: Plasma concentration at end of xenograft study. The format is in vivo, mice. Particulars: 2–3 h after last dose on day 24, MK-2206 100 mg/kg, 14h 25 mg/kg p.o. The protocol: (§3) Figure 8 Dual treatment with Akt and SGK inhibitors reduces tumour growth in BT‐474 xenograft model • BT‐474 cells were treated for the indicated times with 0.3 μM MK‐2206. The cell lysates were analysed by immunoblot using the indicated antibodies. • BT‐474c cells were treated with inhibitors as indicated either as monotherapy or in combination and cell confluency measured on the Incucyte ZOOM every 4 h for up to 4 weeks. • BT‐474 cells were injected subcutaneously into athymic Foxn1 ^nu nude mice. […] The tumour volume was measured twice a week. Tumour growth is represented as the fold change mean ± SEM. • All mice were weighed at the end of the treatments. […] Results are presented as a mean ± SD from three different samples. • Tumours were harvested at the end of the experiment, 4 h after the last dosage and subjected to immunohistochemical analysis using cleaved caspase‐3 antibody (clCasp3). Apoptotic cells were counted in 25 fields per condition (left panel) and quantified as clCasp3‐positive cells/field (right panel). The results are presented as mean ± SD number of cleaved caspase‐3 positive cells. Representative images are shown. Scale bar, 100 μm. • Tumours were harvested at the end of the experiment, 4 h after the last dosage and subjected to immunohistochemical analysis with the indicated antibodies. Representative images are shown. Scale bar, 100 μm. • Tumours were obtained the same way as in (G) and subjected to immunoblot analysis with the indicated antibodies. Six different tumours were analysed from each treatment group and each line represents one tumour sample. TEXT PRINTED IN THE PICTURE: (E) MK-2206: plasma conc.

A further data set deals with BT-474c cells. Nature of the data set: Cell growth in vitro (confluency, Incucyte ZOOM). The format is cell-based, human. Here is the method:
as §3
SGK3 (upper panel) and S6K1 (middle panel) were immunoprecipitated and subjected to in vitro kinase assay by measuring phosphorylation of the Crosstide substrate peptide in the presence of 0.1 mM [γ‐^32P]ATP in a 30 min 30°C reaction. Kinase reactions are presented as means ± SD for triplicate reaction. Immunoprecipitates (IP) were also analysed by immunoblot with the indicated antibodies. […]

A further data set deals with PKBa (Homo sapiens, UniProt P31749). Nature of the data set: IC50 on recombinant PKBa (Akt1). The format is biochemical. The settings on record: Fig 5B / Appendix Fig S1B, recombinant kinase, unit inferred. Here is the method:
The result for each kinase is presented as a mean kinase activity of the reaction taken in triplicate relative to a control reaction where the inhibitors were omitted. […] SGK3 was immunoprecipitated from cell lysates and subjected to in vitro kinase assay by measuring phosphorylation of the Crosstide substrate peptide in the presence of 0.1 mM [γ‐^32P]ATP in a 30 min 30°C reaction (upper panel). Kinase reactions are presented as means ± SD for triplicate reaction.
Appendix Figure S1. […] (A) Chemical struc tures of
Sano/f_i-14g, -14i and -14n compounds. (B) IC50 values of inhibitors on indicated recombinant k inases. […]

The subject of data set [4] is BT-474 xenograft tumours. Nature of the data set: Cleaved caspase-3 immunohistochemistry of xenograft tumours. The settings on record: end of treatment, 4 h after last dosage. The format is in vivo, mice. Here is the method:
as §1, §2

Where [5] appears, read: 1–3 μM 14h, 1 h, ZR-75-1 in serum.
Setting [6] is: ZR-75-1, 5 days GDC0941 or MK-2206, then 3 μM 14h 1 h.

pIC50: −log10 of the molar value.

Chain of PKBa (P31749 whole entry): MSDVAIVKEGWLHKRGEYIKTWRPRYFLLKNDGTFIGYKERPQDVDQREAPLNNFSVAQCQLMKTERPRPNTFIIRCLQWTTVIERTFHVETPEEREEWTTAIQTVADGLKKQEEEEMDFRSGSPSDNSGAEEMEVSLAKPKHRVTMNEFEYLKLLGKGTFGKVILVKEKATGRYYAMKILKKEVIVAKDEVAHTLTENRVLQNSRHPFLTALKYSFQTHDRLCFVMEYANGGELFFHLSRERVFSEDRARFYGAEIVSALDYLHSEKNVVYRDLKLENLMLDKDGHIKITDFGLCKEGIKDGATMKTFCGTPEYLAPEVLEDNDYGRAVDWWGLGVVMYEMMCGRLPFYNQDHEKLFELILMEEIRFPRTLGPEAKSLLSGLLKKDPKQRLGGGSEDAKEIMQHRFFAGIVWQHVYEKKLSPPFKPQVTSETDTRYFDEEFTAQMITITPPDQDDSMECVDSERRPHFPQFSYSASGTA

What is called pIC50 is the IC50 on a negative log10 scale, so that one unit is a factor of ten. For `Nc1n[nH]c2nc(-c3ccc(NS(=O)(=O)c4cc(Cl)ccc4Cl)cc3)cnc12` [14h], the anti-tumour effect entry in data set [1] (25 mg/kg p.o. 5 times/week) was “No anti‐tumour effects”. Moreover, in the data set with ZR-75-1 cells (10 μM 14h, 1 h, ZR-75-1 in serum), the “S6K1 and S6 protein phosphorylation” value is given as “moderate reduction”. In addition, in the data set with ZR-75-1 cells (setting [5]), the “PRAS40 (Akt-specific substrate) phosphorylation” value is listed as “not dephosphorylated”; the “Rictor (Thr1135) and S6 protein (Ser240/244) phosphorylation” value is “failed to significantly inhibit”. For the same compound, in the data set on ZR-75-1 cells (setting [6]), the 4EBP1 phosphorylation result is reported as “not markedly reduced” and the TSC2 phosphorylation result was “suppressed phosphorylation of TSC2”. In addition, the “TSC2, S6K1, Rictor, S6 protein or 4EBP1 phosphorylation or S6K1 activity” value in the data set with ZR-75-1 cells (ZR-75-1 in serum without prolonged PI3K or Akt inhibitor treatment, 3 μM 14h) was “did not inhibit”. In the data set on BT-474 xenograft tumours [2], the “phosphorylation markers in tumour samples (Akt 473, PRAS40, NDRG1, S6)” value is recorded as “no major effect”. Besides, the plasma conc. in data set [3] (dual treatment) was 1390 ± 360 nM. In addition, in data set [3] (mono treatment), the plasma conc. was found to be 1770 ± 540 nM. Further, the “cell growth when 14h is combined with Akt inhibitor” value in the data set with BT-474c cells (3 μM 14h with 0.3 μM AZD5363 or MK-2206, from beginning or 12 days after) is “further reduction in cell growth”. Besides, the anti-proliferative effect alone entry in the data set on BT-474c cells (3 μM, 5–6 days) is reported as “little anti‐proliferative effect”. Moreover, the pIC50 on PKBa was less than 5.00.
In the case of `NC1(c2ccc(-c3nc4ccn5c(=O)[nH]nc5c4cc3-c3ccccc3)cc2)CCC1` [MK-2206], the “inhibition of in vivo growth of BT-474” value in data set [1] (100 mg/kg p.o. 5 times/week) is reported as ~ 20%. The “number of apoptotic (cleaved caspase-3 positive) cells in tumours” value with BT-474 xenograft tumours [4] is given as “increased number of apoptotic cells”. Besides, the “phosphorylation markers in tumour samples (Akt 473, PRAS40, NDRG1, S6)” value in the data set with BT-474 xenograft tumours [2] is “ablated Akt 473 and PRAS40 phosphorylation”. In addition, the plasma conc. came to 2690 ± 250 nM in data set [3] (dual treatment) and 2690 ± 530 nM in data set [3] (mono treatment). In addition, the “time to reach confluency” value in the data set on BT-474c cells (0.3 μM Akt inhibitor, long-term growth assay) is on record as approximately 20 days.

The values above are taken from PMC5007552, “The hVps34‐SGK3 pathway alleviates sustained PI3K/Akt inhibition by stimulating mTORC1 and tumour growth” (The EMBO Journal, 2016).
